Test results from US4339535A, “Process for preparing antibiotic EM 4940” (E. R. Squibb & Sons, Inc., priority 1980, dated 1982).

How the values were obtained:
Shigella sonnei = test: MIC aerobic screen, BA-2 agar; type: cell-based; details: Table II, additional tests; strain 8449
solubility = type: physicochemical; details: acetonitrile
[1] = tested on: Acinetobacter calcoaceticus; test: MIC aerobic screen, BA-2 agar; details: Table II, additional tests; strain 8333
Enterobacter cloacae = test: MIC aerobic screen, BA-2 agar; details: Table II, additional tests; strain 10,459
Escherichia coli = test: MIC aerobic screen, BA-2 agar; details: Table II, additional tests
Klebsiella aerogenes = test: MIC aerobic screen, BA-2 agar; details: Table II, additional tests; strain 10,436
Klebsiella pneumoniae = test: MIC aerobic screen, BA-2 agar; details: Table II, additional tests; strain 11,066
Proteus morganii = test: MIC aerobic screen, BA-2 agar; details: Table II, additional tests; strain 9774
Pseudomonas aeruginosa = test: MIC aerobic screen, BA-2 agar; details: Table II, additional tests
Salmonella typhimurium = test: MIC aerobic screen, BA-2 agar; details: Table II, additional tests; strain 9201
Serratia marcescens = test: MIC aerobic screen, BA-2 agar; details: Table II, additional tests
Staphylococcus aureus = test: MIC aerobic screen, BA-2 agar; details: Table II, additional tests
Streptococcus faecalis = test: MIC aerobic screen, BA-2 agar; details: Table II, additional tests; strain 9011
Proteus rettgeri = test: MIC aerobic screen, BA-2 agar; details: Table II, additional tests; strain 8217

For CC1(O)CC(C(N)=O)N=C1c1ncccc1O (stereo not drawn) [EM4940B, 2,4-cis-3,4-dihydro-4-hydroxy-5-(3-hydroxy-2-pyridinyl)-4-methyl-2H-pyrrole-2-carboxamide], the “Minimum Inhibitory Concentration” value (Shigella sonnei) was 50 µg/mL, the “solubility of B form relative to A form” value (solubility) was “more soluble” and the “Minimum Inhibitory Concentration” value [1] was 100 µg/mL. The “Minimum Inhibitory Concentration” value (Enterobacter cloacae) was 100 µg/mL, the “Minimum Inhibitory Concentration” value (Escherichia coli; strain 10,404) was 50 µg/mL and the “Minimum Inhibitory Concentration” value (Escherichia coli; strain 10,857) was 50 µg/mL. The “Minimum Inhibitory Concentration” value (Klebsiella aerogenes) was 50 µg/mL, the “Minimum Inhibitory Concentration” value (Klebsiella pneumoniae) was 50 µg/mL and the “Minimum Inhibitory Concentration” value (Proteus morganii) was 100 µg/mL. For the same compound, the “Minimum Inhibitory Concentration” value (Pseudomonas aeruginosa; strain 8754) was 100 µg/mL, the “Minimum Inhibitory Concentration” value (Pseudomonas aeruginosa; strain 9330) was greater than 200 µg/mL and the “Minimum Inhibitory Concentration” value (Pseudomonas aeruginosa; strain 9545) was 12.5 µg/mL. For the same compound, the “Minimum Inhibitory Concentration” value (Salmonella typhimurium) was 50 µg/mL, the “Minimum Inhibitory Concentration” value (Serratia marcescens; strain 9782) was 50 µg/mL and the “Minimum Inhibitory Concentration” value (Serratia marcescens; strain 11,111) was 100 µg/mL. For the same compound, the “Minimum Inhibitory Concentration” value (Staphylococcus aureus; strain 2400) was greater than 200 µg/mL, the “Minimum Inhibitory Concentration” value (Staphylococcus aureus; strain 2661) was greater than 200 µg/mL and the “Minimum Inhibitory Concentration” value (Staphylococcus aureus; strain 10,165) was 100 µg/mL. The “Minimum Inhibitory Concentration” value (Staphylococcus aureus; strain 11,239) was 100 µg/mL, the “Minimum Inhibitory Concentration” value (Streptococcus faecalis) was greater than 200 µg/mL and the “Minimum Inhibitory Concentration” value (Proteus rettgeri) was 50 µg/mL.
